A short description of data set [1]: Pharmacokinetics of DG-031 dosing schedules, plasma concentration (studies 201 and 203). To be noted: for Peak concentration with trough concentration of 3 μg/mL maintained: steady-state, both half-lives.
Procedure: Measurements of plasma DG-031 can be carried out by methods that are standard in the art. […] The DG-031 is then measured by liquid chromatography and/or mass spectrometry and the measured concentration is compared to a standard curve.
After completion of the double-blind study reported herein an open-label randomized study was conducted in an independent cohort but with same eligibility criteria and measuring several of the same biomarkers. […] Each patient was on drug for 8 days; there was no placebo group. The primary objective of this study was to determine pharmacokinetic parameters of DG-031 in three different doses, as well as to assess the pharmacokinetic/pharmacodynamic relationship between DG-031, LTB4 and MPO.
The additional phase II study was conducted to compare a 750 mg total daily dose administered in a BID or TID dosing regimen.
The test system of a further data set is MPO. Kind of data set: Study DG-031-201: MPO in plasma. The data set is classed as in vivo, human. To be noted: difference visit 2 to visit 5; 500 and 750 mg/day vs placebo cohort. Here is the method: Patients who met the study eligebility criteria were enrolled and randomized into 3 different dose-level groups: (1) 64 patients on 250 mg/day therapy with DG-031 (250 mg q.d.), vs placebo; (2) 64 patients on 500 mg/day therapy with DG-031 (250 mg b.i.d.) vs placebo; and (3) 63 patients on 750 mg/day therapy with DG-031 (250 mg t.i.d.) vs placebo. […] All patients received 3 tablets per day. Treatment periods, 4 weeks in duration each, were separated by a 2-week washout period. The placebo tablets were identical in shape, color, form and taste to the active tablets except that they contained no active drug ingredients. Treatment with DG-031 or placebo was in addition to the subject's standard care, including all medications and treatment plan as prescribed by the subject's cardiologist prior to enrolment. A total of 191 subjects were enrolled, with 172 completing all 8 visits or 8 patients short of the target of 180 patients. […]
All data were analyzed according to a pre-established statistical analysis plan (SAP) and by intention-to-treat (ITT). […] The difference between DG-031 and placebo treatment was the primary outcome, assessed separately for each of the biomarkers. […]

Data set [2] has as its system LTB4 production (ex vivo). Kind of data set: Study DG-031-203 open label dose ranging: capacity for LTB4 production ex vivo. The data set is classed as in vivo, human. Here is the method:
The study also collected information on the dose-related effect of DG-031 on capacity for LTB4 production (ex vivo), plasma MPO, and serum-CRP. […] The pattern observed supported a concentration dependent pharmacologic effect of DG-031 on capacity for LTB4 production measured ex vivo. The effects on LTB4 production amounted to a 30% (p=0.016) and 25% (p=0.094) reduction with the 375 mg BID and 250 mg TID doses, respectively.

Data set [3] has as its system MPO release by neutrophils and other cells in human whole blood. Kind of data set: In vitro MPO release in human whole blood after ionomycin stimulation. It is filed as cell-based. How it is done: Neutrophils and other cells in human whole blood respond in vitro to activation by a calcium ionophore (e.g., ionomycin), with an increase in LTB4 production and with coupled release of MPO stimulated in part by LTB4 production in the assay. The effect of DG-031 on the capacity for production of LTB4 in vitro after ionomycin stimulation was evaluated at concentrations ranging from 0.1 μM up to 240 μM.

The test system of a further data set is CRP. The data set can be described thus: Study DG-031-201 cross-over trial: Hs-CRP in serum. The data set is classed as in vivo, human. The following applies: for CRP: Study 201, 2-6 wks. Here is the method:
Patients who met the study eligebility criteria were enrolled and randomized into 3 different dose-level groups: (1) 64 patients on 250 mg/day therapy with DG-031 (250 mg q.d.), vs placebo; (2) 64 patients on 500 mg/day therapy with DG-031 (250 mg b.i.d.) vs placebo; and (3) 63 patients on 750 mg/day therapy with DG-031 (250 mg t.i.d.) vs placebo. […] All patients received 3 tablets per day. Treatment periods, 4 weeks in duration each, were separated by a 2-week washout period. The placebo tablets were identical in shape, color, form and taste to the active tablets except that they contained no active drug ingredients. Treatment with DG-031 or placebo was in addition to the subject's standard care, including all medications and treatment plan as prescribed by the subject's cardiologist prior to enrolment. A total of 191 subjects were enrolled, with 172 completing all 8 visits or 8 patients short of the target of 180 patients.
The primary objective was to determine whether the FLAP inhibitor has a statistically significant effect, compared to placebo, on one or more biomarkers of MI risk, including: (1) ionomycin-induced LTB4 and MPO release by neutrophils ex vivo; (2) MPO, CRP, N-tyrosine, Lp-PLA2 or amyloid A in serum, or (3) LTE4 in urine. The secondary objective was to determine whether the effect of DG-031 was dose-dependent. The tertiary objective was to assess other biomarkers (See Results). Evaluation of safety and tolerability of the drug was also a primary endpoint.
All data were analyzed according to a pre-established statistical analysis plan (SAP) and by intention-to-treat (ITT). Each arm of the study, as well as pooled sets (combining dose levels), was considered for the primary analysis. Each such set is an AB/BA cross-over design and in the primary analysis of efficacy, the levels of biomarkers of MI risk at the end of the treatment periods (visits 4 and 7) were used as primary response variables. The difference between DG-031 and placebo treatment was the primary outcome, assessed separately for each of the biomarkers. Treatment effect was tested using a two-sample t-test on the period differences for suitably transformed response variables, under an assumption of normality of the transformed data. We report treatment effect as one half of the observed mean differences in the two-sample t-test, with a 95% CI. No pre-tests for carry-over effect were performed as a part of the primary analysis. Tests for carry-over were done and are reported separately from results of primary analysis. All hypotheses were tested at a two-sided nominal significance level of 0.05 and p-values based on t-tests are reported. In addition, for the primary efficacy endpoints where the effects of the two highest doses on 10 primary variables were studied, a randomization test was performed which corrects for multiple testing and ensures that the key results are not affected by distributional concerns. In particular, 1 million permutations of the patients into the different study tracks were performed, generating a reference distribution for the maximum of the 10 t-statistics of the biomarkers under the null hypothesis of no drug effect. By comparing the observed t-statistic of each of the 10 biomarkers to this reference distribution, empirical p-values were computed. […]

“And” between values parts separate entries of the source, which are not always exact repeats. Identical values can stand only once.

As for `O=C(O)[C@@H](c1ccc(OCc2ccc3ccccc3n2)cc1)C1CCCC1` [DG-031, (R)-(+)-alpha-cyclopentyl-4-(2-quinolinylmethoxy)-Benzeneacetic acid], the “Minimum plasma concentration maintained” value in data set [1] (250 mg TID) is roughly 7 µM. Moreover, the “Peak concentrations of DG-031” value in data set [1] (250 mg TID) is “about 10 μg/ml and ~28 μM”. Besides, the “Steady state Cmin plasma concentration” value in data set [1] (250 mg TID) was in the range of 2000 to 3000 ng/mL. Further, the “Calculated AUC24h” value in data set [1] (250 mg TID vs 375 mg BID, study 203) was “somewhat higher for 250 mg TID than for 375 mg BID”. Further, the Cmin result in data set [1] (375 mg BID vs 250 mg TID, study 203) is listed as “slightly higher for the TID dosing regimen”. Besides, the “Peak concentration with trough concentration of 3 μg/mL maintained” value in data set [1] (BID doses) is 14 µg/mL; in data set [1] (TID doses), 7 to 8 µg/mL. The “Peak concentration required to keep steady-state concentration above 3 μg/ml” value in data set [1] (BID dosing, calculated for a 2.5 hour half-life (FIG. 4)) was roughly 30 µg/mL. The “Peak plasma concentration required to keep steady-state concentration above 3 μg/ml” value in data set [1] (TID dosing, calculated for a 2.5 hour half-life) was roughly 11 µg/mL. Further, the “Drug required with TID dosing relative to BID schedule to maintain the minimum concentration” value in data set [1] (in vivo) is “about 70%”. In data set [1] (in vivo), the “Share of total exposure of the fraction with the slower half-life” value is recorded as “about 25%”. The “Carry-over effect, MPO in plasma” value with MPO was −0.11. The LTB4 production in data set [2] (250 mg TID, St. 203) was −25% (St. 203); in data set [2] (375 mg BID, Study 203, 2 hours, p = 0.016), −30%; in data set [2] (375 mg QD, Study 203, 2 hours, NS), −16%. Besides, the “Reduction of LTB4 production ex vivo” value in data set [2] (250 mg TID, p=0.094) came out at 25%; in data set [2] (375 mg BID, p=0.016), 30%. Also, in data set [3], the “Concentration at which MPO release is maximally inhibited in vitro” value is ~2 μg/ml and about 6 μM. Further, the “Reduction in CRP” value with CRP (250 mg BID and TID, end of wash-out period (week 6), p=0.02) is given as 25%. In addition, the CRP is −24% in the data set on CRP (250 mg BID, p = 0.016) and −6% in the data set on CRP (250 mg QD, NS). Moreover, the “Persistence of CRP reduction after week 6” value in the data set on CRP (after end of wash-out period) is on record as 4 weeks. Moreover, the “Reduction of CRP” value in the data set with CRP (higher two dose groups (250 mg BID and 250 mg TID), at 2 weeks, p=0.07, not significant) amounted to 16%.

Values taken from patent US20060257481A1, “Sustained release formulation and dosing schedule of leukotriene synthesis inhibitor for human therapy” (deCODE Genetics ehf., priority 2005, published 2006).
